One assay has as its target T1, Cdc7-ASK complex (Homo sapiens, UniProt O00311).
T1 construct: made in house; host or cells: E. coli C600 lon-
Nature of the assay: ELISA system for measuring inhibition of Cdc7-ASK complex phosphorylation activity (GST-Mcm2 (1-130 a.a.) substrate, anti-Mcm2-phospho-S17 antibody). The settings on record: for concentration-dependent inhibitory effect for Cdc7-ASK complex: ELISA, inhibitor dilution series, FIG. 8. The format is biochemical. In general terms: An ELISA detects its analyte on a solid surface through an enzyme-linked reagent.

The next assay has as its target T2, HA-huCdc7 (wild type) (human, UniProt O00311 14-574).
T2 construct: also called HA-Cdc7
As to the kind of experiment: co-purification on glutathione Sepharose 4B from E. coli co-expression, SDS-PAGE with silver staining.

T1 sequence (O00311 14-574 limits assumed, one chain of several): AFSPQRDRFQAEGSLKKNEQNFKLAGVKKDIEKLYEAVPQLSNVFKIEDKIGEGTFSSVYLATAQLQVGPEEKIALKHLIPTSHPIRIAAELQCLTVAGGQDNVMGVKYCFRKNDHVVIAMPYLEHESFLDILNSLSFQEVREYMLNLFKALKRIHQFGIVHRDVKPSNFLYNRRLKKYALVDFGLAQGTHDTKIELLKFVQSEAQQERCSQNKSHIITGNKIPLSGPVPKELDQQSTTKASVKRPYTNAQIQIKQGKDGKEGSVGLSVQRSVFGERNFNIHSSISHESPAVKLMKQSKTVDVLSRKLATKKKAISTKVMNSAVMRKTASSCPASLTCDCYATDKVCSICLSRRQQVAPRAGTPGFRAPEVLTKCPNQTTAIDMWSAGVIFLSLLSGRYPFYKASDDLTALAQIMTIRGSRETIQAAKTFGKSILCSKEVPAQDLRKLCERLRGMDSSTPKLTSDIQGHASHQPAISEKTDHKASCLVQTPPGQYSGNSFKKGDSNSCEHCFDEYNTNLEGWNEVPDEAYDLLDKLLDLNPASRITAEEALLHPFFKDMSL
T2 sequence (O00311 other isoform, or with tags, fused parts or gaps): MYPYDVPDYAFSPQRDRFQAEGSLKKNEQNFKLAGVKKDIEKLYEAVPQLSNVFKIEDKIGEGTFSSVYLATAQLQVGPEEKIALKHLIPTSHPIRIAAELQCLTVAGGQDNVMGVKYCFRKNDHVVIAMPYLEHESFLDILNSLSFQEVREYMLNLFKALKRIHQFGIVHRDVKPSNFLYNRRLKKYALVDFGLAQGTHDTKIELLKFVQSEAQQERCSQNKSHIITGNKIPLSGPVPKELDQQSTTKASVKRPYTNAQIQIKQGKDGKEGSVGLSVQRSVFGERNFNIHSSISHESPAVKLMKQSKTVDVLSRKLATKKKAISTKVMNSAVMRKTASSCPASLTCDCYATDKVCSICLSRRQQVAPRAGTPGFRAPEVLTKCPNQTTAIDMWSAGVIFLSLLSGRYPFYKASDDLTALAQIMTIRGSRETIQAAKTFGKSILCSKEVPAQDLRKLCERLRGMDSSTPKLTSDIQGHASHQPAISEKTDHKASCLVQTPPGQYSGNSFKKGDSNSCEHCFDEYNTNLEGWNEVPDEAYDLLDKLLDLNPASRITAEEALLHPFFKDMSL
Method for Cdc7-ASK complex: GST-Mcm2 (1-130 a.a.) and GST-Mcm2 (1-80 a.a.) were diluted to 5 μg/ml using 0.1 M carbonate buffer, pipetted at 50 μl/well in to each well of a microtiter plate for ELISA, and then sensitized overnight at 4° C. The sensitizing solution was removed, a blocking solution (1% BSA, 5% sucrose and 0.1% NaN3/PBS) was pipetted in to each well at 200 μl/well, and the plate was allowed to stand for about one hour at room temperature. The blocking solution was then completely removed. The plates were then air-dried in a draft chamber, and stored at 4° C. until use. GST-Mcm2 (1-130 a.a.) and GST-Mcm2 (1-80 a.a.) were immobilized on the inner walls of the microtiter plates by this procedure.
A recombinant Cdc7-ASK complex dilution series was prepared by diluting from one-fold (×1) to 64-fold in two-fold increments using a phosphorylation buffer. 50 μl aliquots of this solution were added to the wells of the immobilized plates (a protein phosphorylation reaction). After incubating at 30° C. for a fixed period of time, the phosphorylation reaction solution was discarded and each well was amply washed four or more times with PBS. […] The primary antibody reaction solution was then discarded and each well was amply washed four or more times with PBS. Anti-rabbit immunoglobulin antibody (secondary antibody, MBL) labeled with horseradish peroxidase (HRP) was then diluted 1000-fold with PBS and added to each well in 50 μl aliquots, then allowed to react for 30 to 60 minutes at room temperature (secondary antibody reaction). The secondary antibody reaction solution was then discarded and each well was washed four or more times with PBS. A coloring substrate solution was then added to each well in 50 μl aliquots, and color was developed for five to 20 minutes (coloring reaction). The coloring reaction was stopped by adding 50 μl aliquots of reaction stopping solution to each well, and the optical absorbance at 450 nm was measured using a microplate reader. […]

Take `COC(=O)[C@@]1(O)C[C@H]2O[C@]1(C)n1c3ccccc3c3c4c(c5c6ccccc6n2c5c31)C(=O)NC4` [K-252a]: on Cdc7-ASK complex, inhibition was half-maximal at 2000 nM (IC50) and the “concentration-dependent inhibitory effect for Cdc7-ASK complex” value is recorded as “concentration-dependent”.

As for `CC[C@H](CO)Nc1nc(NCc2ccccc2)c2ncn(C(C)C)c2n1` [Roscovitine], the “concentration-dependent inhibitory effect for Cdc7-ASK complex” value on Cdc7-ASK complex is listed as “not observed”.

B1: GST-TAT-ASK(minimum) (other)
chain: YGRKKRRQRRRDIRYYIEQKKKELYLLKKSSTSVRDGGKRVGSGAQKTRTGRLKKPFVKVEDMSQLYRPFYLQLTNMPFINYSIQKPCSPFDVDKPSSMQKQTQVKLRIQTDGDKYGGTSIQLQLKEKKKKGYCECCLQKYEDLETHLLSEQHRNFAQSNQYQVVDDIVSKLVFDFVEYEKDTPKKK
notes: also called GST-ASK; partial ASK
For the molecule B1, the binding result with HA-huCdc7 (wild type) was “binds”.
